Data from BindingDB's records for doi:10.1021/cb500956g (University of North Carolina At Chapel Hill, 2015).

Experiments:
Test in all cases: AlphaScreen Assay
Details in all cases: pH 8
TP53-binding protein 1 = TP53-binding protein 1 (Homo sapiens, UniProt Q12888)
Procedure: (§1) In brief, compound plates (1 μL at 10 mM highest concentration; 3-fold, 10-point dilutions in DMSO) were diluted in 1X assay buffer (20 mM TRIS pH 8.0, 25 mM NaCl, 2 mM DTT and 0.05% Tween-20) to 1 mM using a Multimek robotic pipettor (Nanoscreen), and 1 μL was spotted into the wells of 384-well low-volume Proxiplates (PerkinElmer). To these plates was added 9 μL of protein−peptide mix in a 1X assay buffer by Multidrop (Thermo) to bring the final compound concentration to 100 μM, and this was incubated for 30 min at RT. Next, 2 μL of a 1:1 mixture of streptavidin-conjugate donor and nickel-chelate acceptor beads (45μg/mL in 1X assay buffer) were added, and the plates were allowed to incubate for an additional 30 min in the dark at RT. After incubation, the plates were read on an EnVision multilabel reader equipped with an HTS AlphaScreen laser (PerkinElmer).

[1] = biological target: MBT domain-containing protein 1 (Homo sapiens, UniProt Q05BQ5)
Procedure: as §1

[2] = biological target: T1, Chromobox protein homolog 7 (Homo sapiens, UniProt O95931)
T1 sequence (O95931 whole entry): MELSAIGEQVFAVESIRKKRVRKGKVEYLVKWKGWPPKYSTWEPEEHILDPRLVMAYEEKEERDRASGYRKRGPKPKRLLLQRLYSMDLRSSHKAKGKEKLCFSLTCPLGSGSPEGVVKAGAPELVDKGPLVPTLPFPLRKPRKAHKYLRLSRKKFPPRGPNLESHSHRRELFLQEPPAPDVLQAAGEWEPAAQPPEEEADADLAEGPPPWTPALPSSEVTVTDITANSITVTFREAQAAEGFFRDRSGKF
Procedure: as §1

PHD finger protein 1 = biological target: T2, PHD finger protein 1 (Homo sapiens, UniProt O43189)
T2 sequence (O43189 whole entry): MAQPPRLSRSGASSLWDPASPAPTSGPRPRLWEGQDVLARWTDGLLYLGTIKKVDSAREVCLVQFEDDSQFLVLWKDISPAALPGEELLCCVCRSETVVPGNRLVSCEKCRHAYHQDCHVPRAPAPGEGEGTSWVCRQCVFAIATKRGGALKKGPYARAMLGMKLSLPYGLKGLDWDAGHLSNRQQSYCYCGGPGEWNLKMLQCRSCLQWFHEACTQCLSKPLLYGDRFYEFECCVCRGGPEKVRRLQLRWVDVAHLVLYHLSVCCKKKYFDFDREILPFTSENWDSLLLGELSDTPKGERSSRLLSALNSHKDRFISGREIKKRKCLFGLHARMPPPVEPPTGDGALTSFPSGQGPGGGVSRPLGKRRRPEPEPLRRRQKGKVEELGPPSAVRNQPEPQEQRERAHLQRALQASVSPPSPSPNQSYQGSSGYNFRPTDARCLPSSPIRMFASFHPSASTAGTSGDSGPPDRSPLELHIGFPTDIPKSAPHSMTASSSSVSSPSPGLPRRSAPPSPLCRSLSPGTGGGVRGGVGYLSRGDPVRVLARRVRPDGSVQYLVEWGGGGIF
Procedure: as §1

Measured: IC50

Sequence of MBT domain-containing protein 1 (Q05BQ5 whole entry, the tested form may be a part): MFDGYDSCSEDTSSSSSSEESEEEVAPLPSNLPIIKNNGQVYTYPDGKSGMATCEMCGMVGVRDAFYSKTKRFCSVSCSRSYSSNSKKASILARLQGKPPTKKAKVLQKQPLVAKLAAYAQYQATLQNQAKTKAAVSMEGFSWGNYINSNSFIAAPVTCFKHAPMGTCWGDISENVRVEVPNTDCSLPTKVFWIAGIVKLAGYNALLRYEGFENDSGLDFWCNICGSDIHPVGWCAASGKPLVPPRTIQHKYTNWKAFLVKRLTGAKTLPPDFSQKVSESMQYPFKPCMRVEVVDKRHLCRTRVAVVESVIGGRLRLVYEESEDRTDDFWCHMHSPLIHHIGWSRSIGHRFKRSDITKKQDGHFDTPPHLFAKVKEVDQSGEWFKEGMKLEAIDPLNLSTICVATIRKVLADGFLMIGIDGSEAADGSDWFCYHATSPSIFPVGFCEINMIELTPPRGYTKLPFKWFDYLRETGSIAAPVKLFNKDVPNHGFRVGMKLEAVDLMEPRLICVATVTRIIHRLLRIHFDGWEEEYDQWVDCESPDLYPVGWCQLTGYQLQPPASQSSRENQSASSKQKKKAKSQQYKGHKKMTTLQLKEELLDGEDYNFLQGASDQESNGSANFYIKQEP
Sequence of TP53-binding protein 1 (Q12888 whole entry): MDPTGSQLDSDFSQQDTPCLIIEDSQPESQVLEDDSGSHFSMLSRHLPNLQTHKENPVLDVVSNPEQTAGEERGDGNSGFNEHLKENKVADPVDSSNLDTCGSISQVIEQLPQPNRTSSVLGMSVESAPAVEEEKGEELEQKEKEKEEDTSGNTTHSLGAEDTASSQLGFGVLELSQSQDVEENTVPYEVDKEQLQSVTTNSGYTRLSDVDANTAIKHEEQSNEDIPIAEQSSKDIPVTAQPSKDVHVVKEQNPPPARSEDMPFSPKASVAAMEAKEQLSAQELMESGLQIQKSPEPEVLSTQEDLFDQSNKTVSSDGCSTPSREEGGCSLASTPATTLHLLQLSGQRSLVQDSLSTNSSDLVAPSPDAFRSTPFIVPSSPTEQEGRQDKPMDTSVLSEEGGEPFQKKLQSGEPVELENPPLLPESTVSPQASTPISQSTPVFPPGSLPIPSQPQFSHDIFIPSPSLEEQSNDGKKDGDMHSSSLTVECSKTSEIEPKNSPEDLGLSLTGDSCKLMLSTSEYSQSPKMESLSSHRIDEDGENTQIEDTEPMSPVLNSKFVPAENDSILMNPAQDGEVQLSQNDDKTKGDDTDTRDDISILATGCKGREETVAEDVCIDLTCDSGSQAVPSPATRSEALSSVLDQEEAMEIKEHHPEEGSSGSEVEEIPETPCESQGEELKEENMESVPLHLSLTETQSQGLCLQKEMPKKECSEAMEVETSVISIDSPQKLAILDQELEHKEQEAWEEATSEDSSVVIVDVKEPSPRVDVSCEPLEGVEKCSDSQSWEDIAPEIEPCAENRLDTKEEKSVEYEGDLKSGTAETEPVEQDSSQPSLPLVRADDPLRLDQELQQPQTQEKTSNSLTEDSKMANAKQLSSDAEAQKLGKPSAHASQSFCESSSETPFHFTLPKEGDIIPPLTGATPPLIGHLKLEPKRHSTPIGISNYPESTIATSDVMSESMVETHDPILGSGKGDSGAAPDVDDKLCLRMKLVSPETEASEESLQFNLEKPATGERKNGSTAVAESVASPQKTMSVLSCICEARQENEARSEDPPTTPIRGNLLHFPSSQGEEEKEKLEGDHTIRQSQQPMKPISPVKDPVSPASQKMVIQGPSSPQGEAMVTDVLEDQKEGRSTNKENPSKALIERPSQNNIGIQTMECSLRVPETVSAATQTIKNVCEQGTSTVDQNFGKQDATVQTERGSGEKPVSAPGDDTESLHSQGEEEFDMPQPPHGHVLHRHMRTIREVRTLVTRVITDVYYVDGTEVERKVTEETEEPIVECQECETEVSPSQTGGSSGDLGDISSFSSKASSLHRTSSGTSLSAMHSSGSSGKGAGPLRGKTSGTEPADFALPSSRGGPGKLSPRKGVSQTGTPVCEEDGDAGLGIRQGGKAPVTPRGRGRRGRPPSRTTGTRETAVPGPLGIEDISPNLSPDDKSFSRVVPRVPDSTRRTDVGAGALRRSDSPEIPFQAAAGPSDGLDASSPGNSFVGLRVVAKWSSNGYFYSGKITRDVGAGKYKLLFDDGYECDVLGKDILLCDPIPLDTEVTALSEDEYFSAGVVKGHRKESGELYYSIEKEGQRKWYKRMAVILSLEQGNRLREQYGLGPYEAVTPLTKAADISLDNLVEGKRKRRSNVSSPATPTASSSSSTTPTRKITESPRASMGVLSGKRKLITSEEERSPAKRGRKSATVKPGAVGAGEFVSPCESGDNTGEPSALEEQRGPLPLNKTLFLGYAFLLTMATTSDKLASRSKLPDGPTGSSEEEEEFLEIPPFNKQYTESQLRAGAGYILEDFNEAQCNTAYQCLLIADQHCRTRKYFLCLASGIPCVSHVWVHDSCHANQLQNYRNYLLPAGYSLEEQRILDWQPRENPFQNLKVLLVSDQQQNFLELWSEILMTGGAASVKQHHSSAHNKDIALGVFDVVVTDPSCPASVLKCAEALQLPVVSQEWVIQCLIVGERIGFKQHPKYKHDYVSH

CC(C)(C)NCCCCNC(=O)c1cccc(Br)c1 [3-Bromo-N-(4-(tert-butylamino)butyl)benzamide (11)]
> 100 µM: all assays above

CC(C)(C)N1CCN(C(=O)c2cccc(Br)c2)CC1 [(3-Bromophenyl)(4-(tert-butyl)piperazin-1-yl)methanone (10)]
> 100 µM: all assays above

CC(C)(C)NCCCNC(=O)c1ccccc1Br [2-Bromo-N-(3-(tert-butylamino)propyl)benzamide (16)]
> 100 µM: all assays above

CC(C)(C)NCCCNC(=O)c1ccc(Br)cc1 [4-Bromo-N-(3-(tert-butylamino)propyl)benzamide (15)]
> 100 µM: all assays above

CC(C)(C)NCCCNC(=O)c1cc(Br)ccn1 [4-Bromo-N-(3-(tert-butylamino)propyl)picolinamide (24)]
> 100 µM: all assays above

CC(C)(C)NCCCNC(=O)c1cc(C(F)(F)F)ccn1 [N-(3-(Tert-butylamino)propyl)-4-(trifluoromethyl)picolinamide (25)]
> 100 µM: all assays above

CC(C)(C)NCCCCCNC(=O)c1cccc(Br)c1 [3-Bromo-N-(5-(tert-butylamino)pentyl)benzamide (12)]
> 100 µM: all assays above
